Literature values as cited in US8460687B1, “Peeling compositions” (Cosmoceutical Research Center, priority 2009, dated 2013).
Read-outs that look alike come from different tables or passages of the source.

pH of aqueous solution (0.66 g/l): 2.68
pH of aqueous solution (66 g/l): 0.9
SMILES: O=P(O)(O)O[C@H]1[C@H](OP(=O)(O)O)[C@@H](OP(=O)(O)O)[C@H](OP(=O)(O)O)[C@@H](OP(=O)(O)O)[C@H]1OP(=O)(O)O [Phytic acid, inisitol hexakisphosphate]
